# Data from publication PMC2695604 (2009).
# Biological target: isoleucyl-tRNA synthetase (IleRS) (Escherichia coli, UniProt P00956)
# Assay: affinity labeling with saturation kinetics of inactivation
# Format: biochemical
# isoleucyl-tRNA synthetase (IleRS), sequence (P00956 2-938): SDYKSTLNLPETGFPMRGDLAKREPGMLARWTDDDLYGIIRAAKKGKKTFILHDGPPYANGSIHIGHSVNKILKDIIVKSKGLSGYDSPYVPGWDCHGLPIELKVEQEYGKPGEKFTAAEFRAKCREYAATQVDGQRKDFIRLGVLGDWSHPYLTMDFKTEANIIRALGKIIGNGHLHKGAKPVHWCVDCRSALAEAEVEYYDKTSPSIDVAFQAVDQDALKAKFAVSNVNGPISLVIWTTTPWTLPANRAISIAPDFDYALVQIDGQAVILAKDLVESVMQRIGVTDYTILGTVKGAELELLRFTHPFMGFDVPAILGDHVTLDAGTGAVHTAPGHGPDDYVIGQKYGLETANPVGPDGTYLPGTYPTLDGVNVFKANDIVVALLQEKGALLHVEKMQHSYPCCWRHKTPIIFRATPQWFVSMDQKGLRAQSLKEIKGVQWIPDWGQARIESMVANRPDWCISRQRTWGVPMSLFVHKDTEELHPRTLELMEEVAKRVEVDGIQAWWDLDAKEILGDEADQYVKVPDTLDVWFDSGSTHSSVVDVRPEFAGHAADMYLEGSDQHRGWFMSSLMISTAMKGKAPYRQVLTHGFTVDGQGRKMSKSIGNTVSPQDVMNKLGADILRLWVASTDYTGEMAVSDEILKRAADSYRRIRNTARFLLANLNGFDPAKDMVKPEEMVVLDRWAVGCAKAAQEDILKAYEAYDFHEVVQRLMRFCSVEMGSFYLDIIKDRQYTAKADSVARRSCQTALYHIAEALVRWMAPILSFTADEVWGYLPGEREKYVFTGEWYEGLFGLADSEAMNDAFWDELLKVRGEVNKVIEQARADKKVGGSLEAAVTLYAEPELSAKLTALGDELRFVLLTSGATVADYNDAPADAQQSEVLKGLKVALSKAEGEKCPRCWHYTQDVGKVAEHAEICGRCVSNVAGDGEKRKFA
smiles,measurement,value
"CC[C@H](C)[C@H](N)C(=O)CBr [IBMK, L-isoleucine bromomethyl ketone]",KI (inactivation),~100 µM
